Legend:
[1] = system: Insulin specific NOD T cell clone PD6-4.3; test: Proliferation of insulin-specific NOD T cell clone PD6-4.3; type: cell-based, mouse (NOD); settings: 50 μg/ml peptide, 72 h, 3H-thymidine; no antigen 163 cpm
Protocol: (§1) Insulin specific NOD T cell lines were established by culturing lymphocytes isolated from islet-infiltrating populations by in vitro stimulation with either porcine insulin at 25 μg/ml and irradiated NOD islet cell in the presence of irradiated NOD spleen cells as antigen presenting cells and cytokines. To obtain the infiltrating lymphocytes the following procedures were performed (see Wegmann et al., Eur. J. Immunol. 24:1853, 1994): the pancreas from the NOD mouse was digested with collagenase and individual islets were isolated manually. The infiltrating lymphocytes were then obtained by mild trypsin digestion of the islets. The insulin specific T cell lines or clones were propagated by serial stimulation in the presence of NOD spleen cells, porcine insulin and lymphokines. Clones were obtained by limiting dilution of the B chain (9-23) specific T cell lines in the presence of the antigen presenting cells and porcine insulin at 25 μg/ml. Wells with a growing population of cells following limiting dilution were expanded in appropriate medium, and after one cycle of growth were tested for reactivity to the B chain (9-23) peptide of insulin by evaluating the proliferative response.
(§2) Insulin B chain (9-23) (SEQ ID NO:2) specific mouse (NOD) T cell clones were isolated from infiltrated islets as described in Example 2. Peptide analogues with single alanine substitutions were prepared as described in Example 1. The effect of each analogue on T cell proliferation was then evaluated using an assay performed in 96-well flat bottom microtiter plates (see Daniel et al., Eur. J. Immunol. 25:1056, 1995). Briefly 25,000 T cell clones along with 1 million irradiated NOD spleen cells were cultured in the presence of 50 μg/ml of insulin B chain 9-23 peptide or any of the alanine substituted peptides listed below in triplicate sets. The plates were incubated for a total of 72 hours in 7% carbon dioxide atmosphere with a pulse of 1 μCi/well of tritiated thymidine for the last 6-8 hours of culture. Cells were harvested on a glass fiber filter and the associated radioactivity was counted in a liquid scintillation counter. Results are expressed as mean counts per minute of triplicate wells.

[2] = system: Insulin specific NOD T cell clone PD12-4.4; test: Proliferation of insulin-specific NOD T cell clone PD12-4.4; type: cell-based, mouse (NOD); settings: 50 μg/ml peptide, 72 h, 3H-thymidine; no antigen 350 cpm
Protocol: as §1, §2

[3] = system: Insulin specific NOD T cell clone PD12-4.34; test: Proliferation of insulin-specific NOD T cell clone PD12-4.34; type: cell-based, mouse (NOD); settings: 50 μg/ml peptide, 72 h, 3H-thymidine; no antigen 231 cpm
Protocol: as §1, §2

[4] = system: Insulin specific NOD T cell clone PD12-2.40; test: Proliferation of insulin-specific NOD T cell clone PD12-2.40; type: cell-based, mouse (NOD); settings: 50 μg/ml peptide, 72 h, 3H-thymidine; no antigen 682 cpm
Protocol: as §1, §2
(§3) NOD T cell clones were incubated in the presence of 50 μM of either the native B chain (9-23) peptide or NBI-6024. The data in Table 3 represent the mean of triplicate sample±standard error of the mean. Within Table 3, S.I. (Stimulation Index)=proliferation (cpm) in the presence of the peptide/proliferation (cpm) in medium alone.

[5] = system: Insulin specific NOD T cell clone PD12-4.29; test: Proliferation of insulin-specific NOD T cell clone PD12-4.29; type: cell-based, mouse (NOD); settings: 50 μg/ml peptide, 72 h, 3H-thymidine; no antigen 789 cpm
Protocol: as §1, §2

[6] = system: Insulin B chain (9-23) specific mouse (NOD) T cell clones; test: Proliferation of insulin-specific NOD T cell clones (summary over clones); type: cell-based; settings: five separate T cell clones; 50 μg/ml peptide
Protocol: as §1, §2, §3

[7] = system: B chain (9-23) specific mouse T cell clones; test: Antagonism of T cell proliferation assay (FIG. 2); type: cell-based, mouse (NOD); settings: varying amounts of analogue
Protocol: FIG. 2 is a graph showing the proliferative response (measured in cpm) of a NOD mouse T cell clone to a native insulin B chain (9-23) peptide in the presence of varying amounts of representative peptide analogues, in which different residues are substituted with alanine, as indicated.
Peptide analogues of B chain (9-23) containing alanine substitutions at residue 12, 13, 15 or 16 or the doubly substituted peptide at positions 16 and 19 (A^16,19; NBI-6024) were prepared as described in Example 1. T cell antagonism was detected by evaluating the ability of the peptide analogues to inhibit T cell proliferation induced by native B chain (9-23) (SEQ ID NO:2). In this assay, antigen presenting cells were first irradiated and then incubated with the competing peptide analogue and the native B chain (9-23) peptide. T cells were then added to the culture. Various concentrations of candidate peptide analogues were included in cultures which were incubated for a total of 4 days. Following this incubation period, each culture was pulsed with 1 μCi of [^3H]-thymidine for an additional 12-18 hours. Cultures were then harvested on fiberglass filters and counted as above. Mean CPM and standard error of the mean were calculated from data determined in triplicate cultures.

[8] = system: NOD mice (spontaneous diabetes); test: Reduction of incidence of diabetes in NOD mice; type: in vivo, NOD mouse; settings: NOD mice, 400 μg s.c. weekly, 13 treatments; neurotensin as control; FIG. 10

Which results are given for “Position 10: insulin B chain (9-23) analogue, native H at position 10 substituted with A”?
Response (cpm) of T cell clone PD6-4.3 [1]: 12507 cpm; Response (cpm) of T cell clone PD12-4.4 [2]: 823 cpm; Response (cpm) of T cell clone PD12-4.34 [3]: 356 cpm; Response (cpm) of T cell clone PD12-2.40 [4]: 1409 cpm; Response (cpm) of T cell clone PD12-4.29 [5]: 15484 cpm

For “Position 11: insulin B chain (9-23) analogue, native L at position 11 substituted with A”, which “Response (cpm) of T cell clone PD6-4.3” value [1] is on record?
Its value is 14148 cpm.

And the “Response (cpm) of T cell clone PD12-4.4” value [2]?
Its value is 474 cpm.

And the “Response (cpm) of T cell clone PD12-4.34” value [3]?
Its value is 190 cpm.

And the “Response (cpm) of T cell clone PD12-2.40” value [4]?
The value was 2594 cpm.

And the “Response (cpm) of T cell clone PD12-4.29” value [5]?
The value was 18416 cpm.

How did the “Proliferation relative to the 9-23 native peptide of insulin B chain” value [6] turn out when “Position 12: insulin B chain (9-23) analogue, native V at position 12 substituted with A (SHLAEALYLVCGERG)” was run?
Its value is “either a lack of proliferation or significantly reduced proliferation”.

What about the “Response (cpm) of T cell clone PD6-4.3” value [1] of the same substance?
The value was 8292 cpm.

And the “Response (cpm) of T cell clone PD12-4.4” value [2]?
The value was 1129 cpm.

What about the “Response (cpm) of T cell clone PD12-4.34” value [3] of the same substance?
Its value is 194 cpm.

And the “Response (cpm) of T cell clone PD12-2.40” value [4]?
Its value is 671 cpm.

What about the “Response (cpm) of T cell clone PD12-4.29” value [5] of the same substance?
Its value is 15041 cpm.

And the “Inhibition of T cell proliferation induced by native B chain (9-23)” value [7]?
Its value is “capable of attenuating the response”.

Which results are given for “Position 13: insulin B chain (9-23) analogue, native E at position 13 substituted with A (SHLVAALYLVCGERG)”?
Proliferation relative to the 9-23 native peptide of insulin B chain [6]: either a lack of proliferation or significantly reduced proliferation; Response (cpm) of T cell clone PD6-4.3 [1]: 142 cpm; Response (cpm) of T cell clone PD12-4.4 [2]: 373 cpm; Response (cpm) of T cell clone PD12-4.34 [3]: 179 cpm; Response (cpm) of T cell clone PD12-2.40 [4]: 519 cpm; Response (cpm) of T cell clone PD12-4.29 [5]: 891 cpm; Inhibition of T cell proliferation induced by native B chain (9-23) [7]: capable of attenuating the response; Incidence of diabetes (percent of mice diabetic) [8]: more pronounced

With “Position 15: insulin B chain (9-23) analogue, native L at position 15 substituted with A (SHLVEAAYLVCGERG)” as the substance, how does the “Proliferation relative to the 9-23 native peptide of insulin B chain” value [6] read?
Its value is “either a lack of proliferation or significantly reduced proliferation”.

What about the “Response (cpm) of T cell clone PD6-4.3” value [1] of the same substance?
Its value is 161 cpm.

What about the “Response (cpm) of T cell clone PD12-4.4” value [2] of the same substance?
Its value is 675 cpm.

What about the “Response (cpm) of T cell clone PD12-4.34” value [3] of the same substance?
Its value is 191 cpm.

What about the “Response (cpm) of T cell clone PD12-2.40” value [4] of the same substance?
The value was 1422 cpm.

What about the “Response (cpm) of T cell clone PD12-4.29” value [5] of the same substance?
The value was 809 cpm.

For “Position 16: insulin B chain (9-23) analogue, native Y at position 16 substituted with A (SHLVEALALVCGERG)”, which “Proliferation relative to the 9-23 native peptide of insulin B chain” value [6] is on record?
The value was “either a lack of proliferation or significantly reduced proliferation”.

What about the “Response (cpm) of T cell clone PD6-4.3” value [1] of the same substance?
The value was 98 cpm.

What about the “Response (cpm) of T cell clone PD12-4.4” value [2] of the same substance?
The value was 779 cpm.

And the “Response (cpm) of T cell clone PD12-4.34” value [3]?
Its value is 202 cpm.

What about the “Response (cpm) of T cell clone PD12-2.40” value [4] of the same substance?
The value was 539 cpm.

What about the “Response (cpm) of T cell clone PD12-4.29” value [5] of the same substance?
The value was 636 cpm.

What about the “Inhibition of T cell proliferation induced by native B chain (9-23)” value [7] of the same substance?
The value was “capable of attenuating the response”.

What does the source list for “Position 17: insulin B chain (9-23) analogue, native L at position 17 substituted with A”?
Proliferation relative to the 9-23 native peptide of insulin B chain [6]: either a lack of proliferation or significantly reduced proliferation; Response (cpm) of T cell clone PD6-4.3 [1]: 553 cpm; Response (cpm) of T cell clone PD12-4.4 [2]: 332 cpm; Response (cpm) of T cell clone PD12-4.34 [3]: 4360 cpm; Response (cpm) of T cell clone PD12-2.40 [4]: 19321 cpm; Response (cpm) of T cell clone PD12-4.29 [5]: 1460 cpm

Which “Proliferation relative to the 9-23 native peptide of insulin B chain” value [6] does the source give for “Position 18: insulin B chain (9-23) analogue, native V at position 18 substituted with A” here?
Its value is “either a lack of proliferation or significantly reduced proliferation”.

And the “Response (cpm) of T cell clone PD6-4.3” value [1]?
Its value is 234 cpm.

What about the “Response (cpm) of T cell clone PD12-4.4” value [2] of the same substance?
Its value is 225 cpm.

What about the “Response (cpm) of T cell clone PD12-4.34” value [3] of the same substance?
Its value is 721 cpm.

And the “Response (cpm) of T cell clone PD12-2.40” value [4]?
The value was 44785 cpm.

And the “Response (cpm) of T cell clone PD12-4.29” value [5]?
Its value is 1193 cpm.

How did the “Response (cpm) of T cell clone PD6-4.3” value [1] turn out when “Position 19: insulin B chain (9-23) analogue, native C at position 19 substituted with A” was run?
Its value is 7678 cpm.

And the “Response (cpm) of T cell clone PD12-4.4” value [2]?
Its value is 4295 cpm.

What about the “Response (cpm) of T cell clone PD12-4.34” value [3] of the same substance?
The value was 689 cpm.

What about the “Response (cpm) of T cell clone PD12-2.40” value [4] of the same substance?
Its value is 34212 cpm.

And the “Response (cpm) of T cell clone PD12-4.29” value [5]?
The value was 6054 cpm.

“Position 20: insulin B chain (9-23) analogue, native G at position 20 substituted with A” was tested. Which “Response (cpm) of T cell clone PD6-4.3” value [1] did it give?
The value was 2440 cpm.

What about the “Response (cpm) of T cell clone PD12-4.4” value [2] of the same substance?
Its value is 1323 cpm.

And the “Response (cpm) of T cell clone PD12-4.34” value [3]?
Its value is 466 cpm.

And the “Response (cpm) of T cell clone PD12-2.40” value [4]?
Its value is 38685 cpm.

And the “Response (cpm) of T cell clone PD12-4.29” value [5]?
The value was 13736 cpm.

For “Position 21: insulin B chain (9-23) analogue, native E at position 21 substituted with A”, which “Response (cpm) of T cell clone PD6-4.3” value [1] is on record?
Its value is 91 cpm.

What about the “Response (cpm) of T cell clone PD12-4.4” value [2] of the same substance?
Its value is 7900 cpm.

And the “Response (cpm) of T cell clone PD12-4.34” value [3]?
The value was 773 cpm.

What about the “Response (cpm) of T cell clone PD12-2.40” value [4] of the same substance?
Its value is 39087 cpm.

And the “Response (cpm) of T cell clone PD12-4.29” value [5]?
The value was 4904 cpm.

Which results are given for “Position 22: insulin B chain (9-23) analogue, native R at position 22 substituted with A”?
Response (cpm) of T cell clone PD6-4.3 [1]: 6555 cpm; Response (cpm) of T cell clone PD12-4.4 [2]: 1313 cpm; Response (cpm) of T cell clone PD12-4.34 [3]: 1555 cpm; Response (cpm) of T cell clone PD12-2.40 [4]: 51721 cpm; Response (cpm) of T cell clone PD12-4.29 [5]: 12635 cpm

With “Position 23: insulin B chain (9-23) analogue, native G at position 23 substituted with A” as the substance, how does the “Response (cpm) of T cell clone PD6-4.3” value [1] read?
The value was 14304 cpm.

And the “Response (cpm) of T cell clone PD12-4.4” value [2]?
Its value is 3228 cpm.

And the “Response (cpm) of T cell clone PD12-4.34” value [3]?
Its value is 791 cpm.

What about the “Response (cpm) of T cell clone PD12-2.40” value [4] of the same substance?
Its value is 75441 cpm.

What about the “Response (cpm) of T cell clone PD12-4.29” value [5] of the same substance?
The value was 18422 cpm.

Reference: patent US20040082503A1, “Methods for treatment of diabetes using peptide analogues of insulin” (Neurocrine Biosciences, Inc., priority 1998, published 2004)
